In patent publication US20240316007A1, “COMPOSITIONS AND TREATMENTS WITH NIROGACESTAT” (SpringWorks Therapeutics, Inc., priority 0001, published 2024):
Structures can show the parent of a compound that is named as a salt.

Legend:
[1] = Pharmacokinetic parameters for single and multiple oral doses of nirogacestat dihydrobromide; assay type: in vivo
Excerpt: The pharmacokinetic parameters for single and multiple oral doses of nirogacestat dihydrobromide (PF-03084014) are provided in Table 1 below.

[2] = system: progressing desmoid tumors; details: Phase 2 study, participants with progressing desmoid tumors; cited from earlier work
[3] = Cohort 1: 150 mg, 1 × 150 mg, APERIOD 2, EXDOSE 150, N 10, Geometric Mean
[4] = Cohort 1: 150 mg, 1 × 150 mg, APERIOD 2, EXDOSE 150, N 10, Max
[5] = Cohort 1: 150 mg, 1 × 150 mg, APERIOD 2, EXDOSE 150, N 10, Median
[6] = Cohort 1: 150 mg, 1 × 150 mg, APERIOD 2, EXDOSE 150, N 10, Min
[7] = Cohort 1: 150 mg, 3 × 50 mg, APERIOD 1, EXDOSE 150, N 10, Max
[8] = Cohort 1: 150 mg, 3 × 50 mg, APERIOD 1, EXDOSE 150, N 10, Min
[9] = Cohort 2: 100 mg, APERIOD 1, EXDOSE 100, N 8, Geometric Mean
[10] = Cohort 2: 100 mg, APERIOD 1, EXDOSE 100, N 8, Max
[11] = Cohort 2: 100 mg, APERIOD 1, EXDOSE 100, N 8, Median
[12] = Cohort 2: 100 mg, APERIOD 1, EXDOSE 100, N 8, Min
[13] = Cohort 3: 50 mg, APERIOD 1, EXDOSE 50.0, N 8, Max
[14] = Cohort 3: 50 mg, APERIOD 1, EXDOSE 50.0, N 8, Median
[15] = Cohort 3: 50 mg, APERIOD 1, EXDOSE 50.0, N 8, Min

CCC[C@H](N[C@H]1CCc2cc(F)cc(F)c2C1)C(=O)Nc1cn(C(C)(C)CNCC(C)(C)C)cn1 [nirogacestat dihydrobromide, (S)-2-(((S)-6,8-difluoro-1,2,3,4-tetrahydronaphthalen-2-yl)amino)-N-(1-(2-methyl-1-(neopentylamino)propan-2-yl)-1H-imidazol-4-yl)pentanamide]
AUCinf [1, 3]: 3020 ng·h/mL
AUClast [1, 3]: 2930 ng·h/mL
CL/F [1, 3]: 49.7 L/h
Cmax [1, 3]: 686 ng/mL
Half-life [1, 3]: 24.7 h
AUCinf [1, 4]: 5880 ng·h/mL
AUClast [1, 4]: 5720 ng·h/mL
CL/F [1, 4]: 82.0 L/h
Cmax [1, 4]: 1200 ng/mL
Half-life [1, 4]: 34.7 h
Tmax [1, 4]: 1.52 h
AUCinf [1, 5]: 3100 ng·h/mL
AUClast [1, 5]: 3040 ng·h/mL
CL/F [1, 5]: 48.4 L/h
Tmax [1, 5]: 1.50 h
AUCinf [1, 6]: 1830 ng·h/mL
AUClast [1, 6]: 1790 ng·h/mL
CL/F [1, 6]: 25.5 L/h
Cmax [1, 6]: 456 ng/mL
Half-life [1, 6]: 13.3 h
Tmax [1, 6]: 0.500 h
CL/F ([1]; Cohort 1: 150 mg, 3 × 50 mg, APERIOD 1, EXDOSE 150, N 10, Geometric Mean): 49.2 L/h
AUCinf [1, 7]: 4870 ng·h/mL
AUClast [1, 7]: 4660 ng·h/mL
CL/F [1, 7]: 69.5 L/h
Cmax [1, 7]: 1120 ng/mL
Half-life [1, 7]: 32.0 h
Tmax [1, 7]: 2.00 h
CL/F ([1]; Cohort 1: 150 mg, 3 × 50 mg, APERIOD 1, EXDOSE 150, N 10, Median): 57.0 L/h
AUCinf [1, 8]: 2160 ng·h/mL
AUClast [1, 8]: 2080 ng·h/mL
CL/F [1, 8]: 30.8 L/h
Cmax [1, 8]: 547 ng/mL
Half-life [1, 8]: 18.1 h
AUCinf [1, 9]: 1780 ng·h/mL
AUClast [1, 9]: 1720 ng·h/mL
CL/F [1, 9]: 56.1 L/h
Cmax [1, 9]: 435 ng/mL
Half-life [1, 9]: 25.2 h
Tmax [1, 9]: 1.19 h
AUCinf [1, 10]: 3940 ng·h/mL
AUClast [1, 10]: 3710 ng·h/mL
CL/F [1, 10]: 124 L/h
Cmax [1, 10]: 654 ng/mL
Half-life [1, 10]: 34.6 h
Tmax [1, 10]: 2.00 h
CL/F [1, 11]: 58.4 L/h
Half-life [1, 11]: 24.4 h
AUCinf [1, 12]: 805 ng·h/mL
AUClast [1, 12]: 777 ng·h/mL
CL/F [1, 12]: 25.4 L/h
Cmax [1, 12]: 259 ng/mL
Half-life [1, 12]: 19.7 h
Tmax [1, 12]: 0.500 h
CL/F ([1]; Cohort 3: 50 mg, APERIOD 1, EXDOSE 50.0, N 8, Geometric Mean): 87.6 L/h
AUCinf [1, 13]: 2140 ng·h/mL
AUClast [1, 13]: 2120 ng·h/mL
CL/F [1, 13]: 660 L/h
Cmax [1, 13]: 507 ng/mL
Half-life [1, 13]: 32.8 h
Tmax [1, 13]: 1.52 h
CL/F [1, 14]: 74.9 L/h
Half-life [1, 14]: 23.3 h
AUCinf [1, 15]: 75.7 ng·h/mL
AUClast [1, 15]: 71.6 ng·h/mL
CL/F [1, 15]: 23.4 L/h
Cmax [1, 15]: 49.6 ng/mL
Half-life [1, 15]: 4.24 h
Tmax [1, 15]: 0.500 h

CCC[C@H](N[C@H]1CCc2cc(F)cc(F)c2C1)C(=O)Nc1cn(C(C)(C)CNCC(C)(C)C)cn1 [nirogacestat, (S)-2-(((S)-6,8-difluoro-1,2,3,4-tetrahydronaphthalen-2-yl)amino)-N-(1-(2-methyl-1-(neopentylamino)propan-2-yl)-1H-imidazol-4-yl)pentanamide]
participants progressing while on therapy [2]: no participants progressing while on therapy
response rate [2]: 29%
tumor shrinkage as measured by magnetic resonance imaging (MRI) [2]: significant tumor shrinkage
